Data taken from patent US20030220211A1, “Methods, compositions, and articles for control of malodor produced by urea-containing body fluids” (The Procter & Gamble Company, priority 2000, published 2003).

What was measured:
[1] = tested on: urine malodor; details: 5 mMol/liter solution, 250 ml sprayed once per day for 11 days over 4 m^2 (105 mg/m^2)
Description: A liquid product for treating hard surfaces is prepared and tested by spraying the product on walls, floors and other surfaces surrounding the urinals in a public men's restroom. Product preparation, use and test results are as follows:
A 5 mMol/liter solution of CuHEDTA is prepared from:
1721 mg of HEDTA (trisodium salt hydrate, MW=344.21);
1250 mg of CuSO4 (pentahydrate, MW=250);
1000 ml of deionized water.
Using a spray-gun, 250 ml of this solution is sprayed once per day for 11 days over a 4 m^2 area surrounding the urinals in a public men's restroom.

[2] = biological target: T1, Urease (Type III from jack beans) (Canavalia ensiformis, UniProt P07374); test: Ammonia odor detection on paper towel sheets treated with urea and urease solution; type: biochemical; details: paper towel sheet, 15 drops CuHEDTA Test Solution (urea 2M/tris + Cu/HEDTA complex solution 125 mM) + 2 drops urease solution; after 30 minutes at room temperature; smell
T1 construct: purchased Sigma U-1500
Description: In such a test, conventional paper towel sheets are treated with both a urea solution and a urease solution. One such sheet serves as a reference sheet; another such sheet is treated with a urease solution which also contains a complex of copper chelated with N-(2-hydroxyethyl)ethylenediamine triacetic acid. After 30 minutes at room temperature, the sheets are evaluated for detectable ammonia order.
Dissolve 2.42 g of trizma-base in about 80 mL H2O deionized, adjust the pH to 7.5 with HCL 1M, bring to 100 mL with H2O deionized.
Dissolve 6 g of Urea in 50 mL of this buffer 0.2M, pH 7.5
Dissolve 2.13 g of CuCl in 50 mL of H2O deionized.
Dissolve 2.15 g of HEDTA in 25 mL of H2O deionized
Cu/HEDTA complex solution (125 mM)
Mix 25 ml of CuCl2 solution (250 mM) with 25 mL HEDTA solution (250 mM)at adjusted with NaOH to pH around 7
Urease solution (10 mg/mL)
Weigh 0.020 g of urease and add 3 mL of tris buffer pH 7.5, 0.2M. This solution is stable for about 1 week provided it is stored at 4° C. in a refrigerator.
10 mL urea 2M/tris+500 mL of H2O deionized buffer.
10 mL Urea 2M/tris+500 mL Cu/TED complex solution buffer (125 mM)
Half of a white BOUNTY™® towel sheet is put in each of two Petri dishes. Into one dish, 15 drops of the reference solution are poured evenly so that the center of the towel sheet is evenly wet. […]

T1 sequence (P07374 whole entry, looked up): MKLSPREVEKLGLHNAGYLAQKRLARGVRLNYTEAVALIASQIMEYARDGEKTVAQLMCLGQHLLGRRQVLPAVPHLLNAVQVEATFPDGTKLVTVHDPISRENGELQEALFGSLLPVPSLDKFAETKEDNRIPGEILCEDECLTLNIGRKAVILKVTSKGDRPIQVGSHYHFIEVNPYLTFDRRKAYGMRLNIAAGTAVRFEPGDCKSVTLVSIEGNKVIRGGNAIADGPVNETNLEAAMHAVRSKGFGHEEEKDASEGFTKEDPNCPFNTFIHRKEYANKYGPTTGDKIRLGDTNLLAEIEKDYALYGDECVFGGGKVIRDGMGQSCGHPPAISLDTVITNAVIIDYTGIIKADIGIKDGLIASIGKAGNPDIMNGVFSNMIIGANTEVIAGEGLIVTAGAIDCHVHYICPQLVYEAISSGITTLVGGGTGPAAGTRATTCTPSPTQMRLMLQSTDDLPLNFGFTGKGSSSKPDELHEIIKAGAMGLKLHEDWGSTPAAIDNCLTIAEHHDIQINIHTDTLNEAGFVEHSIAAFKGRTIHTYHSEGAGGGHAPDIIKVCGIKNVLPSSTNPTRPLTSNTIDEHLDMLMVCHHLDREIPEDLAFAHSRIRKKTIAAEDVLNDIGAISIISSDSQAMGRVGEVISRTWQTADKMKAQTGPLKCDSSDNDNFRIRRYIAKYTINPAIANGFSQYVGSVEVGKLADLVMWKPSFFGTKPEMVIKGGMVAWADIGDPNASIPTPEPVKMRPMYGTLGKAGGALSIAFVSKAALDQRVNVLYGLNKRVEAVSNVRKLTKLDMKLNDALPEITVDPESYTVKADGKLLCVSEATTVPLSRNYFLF

## O=C([O-])CN(CCN(CCO)CC(=O)O)CC(=O)[O-].[Cu+2] [CuHEDTA, copper salt of N-hydroxyethyl-ethylenediamine-triacetic acid]
[1]
  urine malodor control in the men's restroom: effectively controlled for the full 11 day period
[2]
  detectable ammonia odor: No ammonia odor is detectable
